The source of these data is ChEMBL document CHEMBL1136369, “N,N-disubstituted piperazines: synthesis and affinities at alpha4beta2(*) and alpha7(*) neuronal nicotinic acetylcholine receptors” (Bioorg Med Chem Lett, 2003).

Where only a bound is given, the exact number is not on record here.

Assay [1] concerns the target Neuronal acetylcholine receptor subunit alpha-7 (Rattus norvegicus, UniProt Q05941). The assay can be described thus: Binding affinity towards alpha-7 neuronal nicotinic acetylcholine receptor (nAChRs) measured by using the inhibition of [3H]-MLA binding to whole brain membrane.
Assay [2] deals with Neuronal acetylcholine receptor; alpha4/beta2 (Rattus norvegicus, UniProt P09483+P12390). Put plainly: Binding affinity towards alpha4-beta2 measured by using the inhibition of [3H]NIC binding to rat striatal membrane. On the set-up: species or system Striatum.
Neuronal acetylcholine receptor; alpha4/beta2, sequence (P09483 whole entry): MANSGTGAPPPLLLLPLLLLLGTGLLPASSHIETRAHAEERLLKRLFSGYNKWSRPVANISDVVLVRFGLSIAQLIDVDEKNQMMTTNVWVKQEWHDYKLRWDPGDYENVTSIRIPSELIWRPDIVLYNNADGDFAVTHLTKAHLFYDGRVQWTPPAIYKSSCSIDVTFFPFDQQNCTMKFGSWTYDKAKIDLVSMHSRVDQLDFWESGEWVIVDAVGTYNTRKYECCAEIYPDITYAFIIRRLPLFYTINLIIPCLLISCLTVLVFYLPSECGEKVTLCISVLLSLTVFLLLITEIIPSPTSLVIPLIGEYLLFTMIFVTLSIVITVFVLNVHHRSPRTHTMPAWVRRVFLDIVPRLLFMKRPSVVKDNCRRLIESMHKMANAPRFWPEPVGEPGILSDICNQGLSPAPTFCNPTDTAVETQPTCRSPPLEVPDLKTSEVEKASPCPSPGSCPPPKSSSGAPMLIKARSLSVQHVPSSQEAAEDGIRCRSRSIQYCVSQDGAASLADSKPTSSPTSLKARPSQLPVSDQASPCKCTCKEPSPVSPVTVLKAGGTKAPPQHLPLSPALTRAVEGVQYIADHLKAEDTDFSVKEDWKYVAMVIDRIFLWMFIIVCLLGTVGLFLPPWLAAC
Neuronal acetylcholine receptor; alpha4/beta2, sequence (P12390 whole entry): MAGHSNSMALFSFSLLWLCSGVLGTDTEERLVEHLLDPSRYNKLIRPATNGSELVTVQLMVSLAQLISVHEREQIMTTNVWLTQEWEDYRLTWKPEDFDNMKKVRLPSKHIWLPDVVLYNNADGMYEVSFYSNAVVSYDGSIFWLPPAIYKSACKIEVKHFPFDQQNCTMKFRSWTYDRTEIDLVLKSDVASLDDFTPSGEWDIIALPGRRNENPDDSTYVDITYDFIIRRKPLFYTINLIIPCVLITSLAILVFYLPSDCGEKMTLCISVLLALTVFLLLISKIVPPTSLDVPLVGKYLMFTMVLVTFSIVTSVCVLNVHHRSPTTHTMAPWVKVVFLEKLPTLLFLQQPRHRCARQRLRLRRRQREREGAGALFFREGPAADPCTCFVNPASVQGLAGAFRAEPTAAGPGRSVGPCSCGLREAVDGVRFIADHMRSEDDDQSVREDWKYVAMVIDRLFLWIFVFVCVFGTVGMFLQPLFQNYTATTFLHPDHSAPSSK

Neuronal acetylcholine receptor subunit alpha-7, sequence (Q05941 whole entry): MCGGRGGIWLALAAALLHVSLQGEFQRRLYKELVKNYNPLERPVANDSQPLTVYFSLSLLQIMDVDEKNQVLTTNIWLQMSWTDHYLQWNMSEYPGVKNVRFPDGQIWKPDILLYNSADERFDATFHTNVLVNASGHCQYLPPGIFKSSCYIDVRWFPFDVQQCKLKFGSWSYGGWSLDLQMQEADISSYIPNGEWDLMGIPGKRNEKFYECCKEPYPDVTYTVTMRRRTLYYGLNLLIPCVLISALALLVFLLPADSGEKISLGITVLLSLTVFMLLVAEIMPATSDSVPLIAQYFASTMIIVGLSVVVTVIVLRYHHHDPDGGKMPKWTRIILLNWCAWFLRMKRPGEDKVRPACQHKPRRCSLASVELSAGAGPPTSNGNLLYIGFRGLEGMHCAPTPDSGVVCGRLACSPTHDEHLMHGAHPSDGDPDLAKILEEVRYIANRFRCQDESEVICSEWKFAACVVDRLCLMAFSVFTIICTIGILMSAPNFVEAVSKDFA

A word on the Ki: it is a dissociation constant, usually derived from enzyme kinetics or from competition with a known ligand. The low end stands for a stronger hold on the target, the high end for a looser hold on the target. `CN1CCCCC1CN1CCN(Cc2ccncc2)CC1` (racemic): the Ki was above 100 µM in assay [1] and 42 µM in assay [2].

With `c1cncc([C@@H]2CCCN2)c1` [NORNICOTINE], the Ki in assay [1] was determined as 1.19 µM. As to `CN1CCC[C@H]1CN1CCN(Cc2ccncc2)CC1`, the Ki in assay [1] is above 100 µM; in assay [2], 38.9 µM. In the case of `c1cc(CN2CCN(C[C@@H]3CCCN3)CC2)ccn1`, the Ki in assay [1] was above 100 µM; in assay [2] it was 46 µM. As to `O=C([C@@H]1CCCN1)N1CCN(Cc2ccccn2)CC1`, the Ki in assay [1] and in assay [2] was above 100 µM in each case. As for `c1cncc(CN2CCN(C[C@@H]3CCCN3)CC2)c1`, the Ki in assay [1] and in assay [2] was above 100 µM in each case. Take `c1cncc(CN2CCN(CC3CCCCN3)CC2)c1` (racemic): the Ki in assay [1] and in assay [2] was above 100 µM each time.

In the case of `O=C(C1CCCCN1)N1CCN(Cc2cccnc2)CC1` (racemic) [SCR01020], the Ki is above 100 µM in assay [1] and 54.8 µM in assay [2]. In the case of `O=C(C1CCCCN1)N1CCN(Cc2ccncc2)CC1` (racemic), the Ki was above 100 µM in assay [1] and 60.5 µM in assay [2].

Compound `CN1CCCCC1CN1CCN(Cc2cccnc2)CC1` (racemic) yielded a Ki in assay [1] above 100 µM. Turning to `c1cc(CN2CCN(CC3CCCCN3)CC2)ccn1` (racemic), the Ki in assay [1] and in assay [2] was above 100 µM in each case. As to `CN1CCC[C@H]1CN1CCN(Cc2cccnc2)CC1`, in assay [1], the Ki was above 100 µM. As to `O=C(C1CCCCN1)N1CCN(Cc2ccccn2)CC1` (racemic), the Ki in assay [1] and in assay [2] was above 100 µM in each case.
